Experimental data as given in ChEMBL document CHEMBL4229547, “Design, synthesis and biological mechanisms research on 1,2,3-triazole derivatives of Jiyuan Oridonin A” (Bioorg Med Chem, 2018).
Active and inactive are the calls of the source. The rule behind the calls is not given here.

Assays:
[1] = test system: MGC-803; test: Cell cycle arrest in human MGC803 cells assessed as accumulation at G2/M phase after 48 hrs by propidium iodide staining-based flow cytometric method; format: functional
[2] = test system: GES1; test: Antiproliferative activity against human GES-1 cells after 48 hrs by MTT assay; format: cell-based; conditions: GES1, 48 h
[3] = test system: MGC-803; test: Antiproliferative activity against human MGC803 cells at 8 to 16 ug/ml after 48 hrs in presence of N-acetyl cysteine by MTT assay; format: functional, cell-based
[4] = test system: MGC-803; test: Disruption of mitochondrial membrane potential in human MGC803 cells at 1.5 to 3 ug/ml after 24 hrs by JC1 staining-based fluorescence microscopic method; format: functional, cell-based
[5] = test system: MGC-803; test: Cell cycle arrest in human MGC803 cells assessed as accumulation at G0/G1 phase at 1.5 ug/ml after 48 hrs by propidium iodide staining-based flow cytometric method (reference value: 52.5 +/- 3.71%); format: functional
[6] = test system: MGC-803; test: Induction of apoptosis in human MGC803 cells assessed as late apoptotic cells at 3 ug/ml in presence of N-acetyl cysteine by annexin V-FITC/propidium iodide staining-based flow cytometric method (reference value: 0.1%); format: functional
[7] = test system: MGC-803; test: Induction of apoptosis in human MGC803 cells assessed as early apoptotic cells at 3 ug/ml by annexin V-FITC/propidium iodide staining-based flow cytometric method (reference value: 1.3%); format: functional
[8] = test system: MGC-803; test: Induction of apoptosis in human MGC803 cells assessed as viable cells at 3 ug/ml in presence of N-acetyl cysteine by annexin V-FITC/propidium iodide staining-based flow cytometric method (reference value: 97.6%); format: functional; conditions: read-out: Activity
[9] = test system: MGC-803; test: Induction of apoptosis in human MGC803 cells assessed as early apoptotic cells at 3 ug/ml in presence of N-acetyl cysteine by annexin V-FITC/propidium iodide staining-based flow cytometric method (reference value: 1.3%); format: functional
[10] = test system: MGC-803; test: Cell cycle arrest in human MGC803 cells assessed as accumulation at G0/G1 phase at 3 ug/ml after 48 hrs in presence of N-acetyl cysteine by propidium iodide staining-based flow cytometric method (reference value: 52.5 +/- 3.71%); format: functional
[11] = test system: MGC-803; test: Induction of apoptosis in human MGC803 cells assessed as viable cells at 1.5 ug/ml in presence of N-acetyl cysteine by annexin V-FITC/propidium iodide staining-based flow cytometric method (reference value: 97.6%); format: functional; conditions: read-out: Activity
[12] = test system: EC9706; test: Antiproliferative activity against human EC9706 cells after 48 hrs by MTT assay; format: functional, cell-based; conditions: EC9706, 48 h
[13] = test system: MGC-803; test: Induction of reactive oxygen species formation in human MGC803 cells at 3 ug/ml after 5 hrs by DCFH-DA staining-based flow cytometry (reference value: 7.1%); format: functional
[14] = test system: MGC-803; test: Cell cycle arrest in human MGC803 cells assessed as accumulation at G0/G1 phase at 3 ug/ml after 48 hrs by propidium iodide staining-based flow cytometric method (reference value: 52.5 +/- 3.71%); format: functional
[15] = test system: MGC-803; test: Cell cycle arrest in human MGC803 cells assessed as accumulation at G2/M phase at 3 ug/ml after 48 hrs in presence of N-acetyl cysteine by propidium iodide staining-based flow cytometric method (reference value: 17.2 +/- 1.35%); format: functional
[16] = test system: MGC-803; test: Cell cycle arrest in human MGC803 cells assessed as accumulation at S phase at 1.5 ug/ml after 48 hrs by propidium iodide staining-based flow cytometric method (reference value: 32.5 +/- 2.25%); format: functional
[17] = test system: MGC-803; test: Antiproliferative activity against human MGC803 cells after 48 hrs by MTT assay; format: functional, cell-based; conditions: MGC-803, 48 h

For `C=C1C(=O)[C@]23[C@H](O)[C@H]1C[C@H](O)[C@H]2[C@]12CCCC(C)(C)[C@H]1C[C@H]3O[C@@H]2OCCc1cn(Cc2ccc(Cl)cc2)nn1`, which Activity [1] is on record?
The Activity was “Dose-dependent effect”.

What about the IC50 [2] of the same molecule?
Its IC50 is 28.7 µM.

And the Activity [3]?
Its Activity is “inactive”.

What about the Activity [4] of the same molecule?
The Activity was “Active”.

And the Activity [5]?
Its Activity is 46.3%.

And the Activity [6]?
Its Activity is 0%.

And the Activity [7]?
Its Activity is 60.3%.

What about the viability at 3 µg/mL [8] of the same molecule?
Its viability at 3 µg/mL is 94%.

And the Activity [9]?
Its Activity is 4.6%.

What about the Activity [10] of the same molecule?
Its Activity is 50.4%.

And the viability at 1.5 µg/mL [11]?
The viability at 1.5 µg/mL was 95%.

What about the IC50 [12] of the same molecule?
The IC50 was 5.04 µM.

And the Activity [13]?
Its Activity is 24.8%.

And the Activity [14]?
The Activity was 30.5%.

What about the Activity [15] of the same molecule?
The Activity was 14.8%.

And the Activity [16]?
Its Activity is 29.2%.

What about the IC50 [17] of the same molecule?
Its IC50 is 2.53 µM.
